Measured values reported in patent US20240252662A1, “PEPTIDE DRUG CONJUGATES SPECIFIC TO FIBRONECTIN ISOTYPES FOR CANCER THERAPY” (priority 2021, published 2024).
“Also recorded” adds a separate entry of the source.

Legend:
[1] = test system: DLD-1-DR drug resistant colon cancer, PANC-1 and BXPC3 pancreatic cancer, CAL27, SCC4 and HSC3 head and neck cancer cells, MDA-MB-231 and 4T1 breast cancer …; assay: cell cytotoxicity of ZD2-HZ-JAAP in cancer cell panel; format: cell-based; conditions: after 48 hours incubation; compared with JQ1 or JAAP; FIG. 2
Method: FIG. 2 provides graphs showing the cell viability of different cancer cells treated with ZD2-HZ-JAAP.
The cell cytotoxicity of ZD2-HZ-JAAP was tested using DLD-1-DR drug resistant colon cancer, PANC-1 and BXPC3 pancreatic cancer, CAL27, SCC4 and HSC3 head and neck cancer cells, MDA-MB-231 and 4T1 breast cancer cells, PC3 and C4-2 prostate cancer cells.

[2] = test system: human MDA-MB-231 triple negative breast cancer tumors; assay: in vivo anti-tumor activity of ZD2-HZ-JAAP, MDA-MB-231 tumors; parameters: species or system nude mice
Method: The in vivo anti-tumor activity of ZD2-HZ-JAAP was evaluated in the nude mice carrying human MDA-MB-231 triple negative breast cancer tumors. The ZD2-HZ-JAAP drug conjugate was administrated to the mice with human MDA-MB-231 tumors by daily i.p. injection at a dose of 4.4 μmol/kg/day for 30 days. The tumor sizes and body weights of the mice were measured twice a week. The tumor growth was also monitored using bioluminescence imaging on the day 1, 16, and 25 after drug administration, and MRI imaging on the day 7 and 28 after the drug administration. For the ZD2-HZ-JAAP treatment group the tumor growth was inhibited with average tumor size of 80 mm^3 after 30-days of drug treatment, while for the no-treatment control group the tumors were kept growing with average tumor size of 580 mm^3 after 30-days of no treatment. […] In literature, the treatment dose of JQ1 is 50 mg/kg/day or 0.11 mmol/kg/day by i.p. injection to treat the mice with tumors. The dose of ZD2-HZ-JAAP administered by the inventors is 4.4 μmol/kg/day, which is 25-times lower than JQ1 dose. […] Since ZD2-HZ-JAAP is a target-drug that is delivered and accumulated to the tumor site, which results in low toxicity for normal tissues. Target-drug delivery results in high drug concentration at tumor site, and low concentration at normal tissues with efficient killing of tumor cells and low toxicity to normal cells.

[3] = test system: PC3 prostate tumor xenografts; conditions: for tumor volume by the end of the treatment (mean±SD): daily i.p. 7.34 μmol/kg/day for 29 days, n=6, PBS control 1223±136 mm^3
Description: (§1) Anti-tumor efficacy of ZD2-HZ-JAAP conjugate was also investigated using the mice bearing PC3 prostate or 4T1 breast tumor xenografts. For tumor xenografts, PC3 prostate or 4T1 breast cancer cells suspended in Matrigel-PBS were subcutaneously injected into the flank of nude mice or mammary fat pads of BALB/C mice, respectively. Tumor volumes were monitored and measured twice a week using a Vernier caliper. When the average tumor volumes reached 100 mm^3 for PC3 tumors, and 45 mm^3 for 4T1 tumors, the mice bearing tumor xenografts were randomized into PBS control, JQ1 and ZD2-HZ-JAAP treatment groups (n=6 for PC3 tumors or 5 for 4T1 tumors). Free JQ1 and ZD2-HZ-JAAP conjugates were administrated by daily intraperitoneal injection for 29 days at a dose of 7.34 μmol/kg/day. Tumor size and bodyweight were monitored twice a week. The tumor sizes were measured with Vernier calipers, and tumor volumes were calculated using the equation V=(L*W2)/2.

[4] = test system: 4T1 breast tumor xenografts; assay: anti-tumor efficacy of ZD2-HZ-JAAP, 4T1 breast tumor xenografts; format: in vivo, BALB/C mice; conditions: daily i.p. 7.34 μmol/kg/day for 29 days; n=5; PBS control 645±240 mm^3
Description: as §1

[5] = test system: 4T1 breast tumor xenografts; conditions: i.p. 8.28 μmol/kg/week
Method: Anti-tumor efficacy of ZD2-HZ-DOX conjugate was investigated using the mice bearing 4T1 breast tumor xenografts. For tumor xenografts, 2×10^5 4T1 breast cancer cells suspended in Matrigel-PBS were injected into the mammary fat pads of each BALB/C mouse. Tumor volumes were monitored and measured twice a week using a Vernier caliper. When the average tumor volumes reached 100 mm^3, the BALB/C mice bearing 4T1 breast tumors were randomized into PBS control, free doxorubicin and ZD2-HZ-DOX treatment groups (n=5). Free doxorubicin and ZD2-HZ-DOX conjugates were administrated by intraperitoneal injection for 23 days at a dose of 8.28 μmol/kg/week with 3-injections per week, and 2.76 μmol/kg for each injection. Tumor size and bodyweight were monitored twice a week. The tumor sizes were measured with Vernier calipers, and tumor volumes were calculated using the equation V=(L*W2)/2.

[6] = test system: PC3 prostate cancer, 4T1 and MDA-MB-231 breast cancer cells; assay: cell cytotoxicity of DOX conjugates in PC3, 4T1 and MDA-MB-231 cells; format: cell-based; conditions: at 2.5, 5 and 10 μM; compared with doxorubicin; FIG. 11
Method: The reason for the lower cytotoxicity is the slow release of DOX from the ZD2-AM-DOX conjugated with an amide bond.
The cell cytotoxicity of the ZD2-PEG-HZ-DOX was tested using PC3 prostate cancer, 4T1 and MDA-MB-231 breast cancer cells at concentrations of […].

In the case of `Cc1ccc(C(Cl)(c2ccccc2)c2ccccc2Cl)cc1` (stereo not shown) [ZD2-HZ-JAAP], the cell cytotoxicity [1] is reported as “lower than that of JQ1 or JAAP”, the tumor growth inhibition ([2]; 4.4 μmol/kg/day, 25-times lower than literature JQ1 dose) is reported as “efficiently inhibited the triple-negative breast cancer tumor growth” and the average tumor size ([2]; after 30 days of treatment, daily i.p. 4.4 μmol/kg/day, no-treatment control 580 mm^3) is reported as 80 mm^3. For the same molecule, the “body weight of the mice” value ([2]; daily i.p. 4.4 μmol/kg/day for 30 days, vs no-treatment group) was “kept growing; also recorded: no significant difference”, the “tumor volume by the end of the treatment (mean±SD)” value (from here on “tumor volume by the end … (mean±SD)”) [3] was 150±80 mm^3 and the “survival during treatment period” value ([3]; mice bearing PC3 or 4T1 tumors, 29 days of treatment, 7.34 μmol/kg/day i.p.) was “all mice were survived”. The “bodyweight change relative to initial weight” value ([3]; mice bearing PC3 or 4T1 tumors, daily i.p. 7.34 μmol/kg/day, 29 days) was at most 10% and the “tumor volume by the end … (mean±SD)” value [4] was 46±30 mm^3.

In the case of `COc1cccc2c1C(=O)c1c(O)c3c(c(O)c1C2=O)C[C@@](O)(C(=O)CO)C[C@@H]3O[C@H]1C[C@H](N)[C@H](O)[C@H](C)O1` [doxorubicin], the survival ([5]; 24-day treatment period) is reported as “One mouse died on day 10, and all remaining mice died on day 11” and the “loss of bodyweight relative to initial weight” value ([5]; at day 10) is reported as 25%.

In the case of `Cc1ccc(C(Cl)(c2ccccc2)c2ccccc2Cl)cc1` (stereo not shown) [ZD2-AM-DOX], the cell cytotoxicity [6] is reported as “lower than that of doxorubicin”.

With `Cc1sc2c(c1C)C(c1ccc(Cl)cc1)=N[C@@H](CC(=O)OC(C)(C)C)c1nnc(C)n1-2` [JQ1, reference compound] the “tumor volume by the end … (mean±SD)” value [3] was 537±170 mm^3 and the “suppression of tumor growth” value ([3]; same dose as ZD2-HZ-JAAP, 7.34 μmol/kg/day i.p.) was “didn't efficiently suppress tumor growth”.
